Consider 1 compound from the NIST ThermoML archive (doi:10.1016/j.tca.2010.11.025).

One may read the mass density as mass per unit of volume. Broadly, the refractive index is the speed of light in vacuum divided by its phase velocity in the sample.

The conditions of data set [1]: 298.15 K; 101.33 kPa; Liquid; Pycnometric method.
The nature of data set [2]: refractive index (Na D-line) (dimensionless). The conditions noted are these: 298.15 K; 101.33 kPa; Liquid; Standard Abbe refractometry.

Numbers after ± are expanded uncertainties.

Regarding `CN1CCCN(C)C1=O` [1,3-dimethyl-3,4,5,6-tetrahydro-2(1H)-pyrimidinone], the mass density in data set [1] is given as 1060.06 ± 0.96 kg/m3. The refractive index in data set [2] turned out to be 1.4878 ± 0.0007.
